≈ marks a conversion by molar mass, not a printed value.
How the values were obtained:
Test in all cases: minimum inhibitory concentration (ETEST)
[1] = system: Neisseria subflava/flavescens/perflava; details: population: general population, antibiotic use in previous 6 months: No
Method: (§1)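 Oropharyngeal Neisseria isolates from MSM and employees in Belgium were identified to species by MALDI-TOF MS. MICs of azithromycin, ceftriaxone and ciprofloxacin were determined by ETEST on GC agar after 24 h at 36.5 °C and 5-7% CO2, in mg/L. Values beyond the strip range are reported as >256 (azithromycin) or <0.016 (ceftriaxone); isolates that did not grow are NA.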

Neisseria oralis = details: population: general population, antibiotic use in previous 6 months: No
Method: as §1

Neisseria lactamica = details: population: general population, antibiotic use in previous 6 months: No
Method: as §1

Neisseria meningitidis = system: Neisseria meningitidis
Method: as §1

CC[C@H]1OC(=O)[C@H](C)[C@@H](O[C@H]2C[C@@](C)(OC)[C@@H](O)[C@H](C)O2)[C@H](C)[C@@H](O[C@@H]2O[C@H](C)C[C@H](N(C)C)[C@H]2O)[C@](C)(O)C[C@@H](C)CN(C)[C@H](C)[C@@H](O)[C@]1(C)O [azithromycin]
Details	minimum inhibitory concentration [µg/mL]
Neisseria lactamica, isolate id (sample isolate): Co000761_1	2 (≈ 2.67 µM)
Neisseria lactamica, isolate id (sample isolate): Co000771_1	1 (≈ 1.34 µM)
Neisseria oralis, isolate id (sample isolate): Co000761_7	2 (≈ 2.67 µM)
Neisseria oralis, isolate id (sample isolate): Co000763_1	1 (≈ 1.34 µM)
Neisseria oralis, isolate id (sample isolate): Co000766_2	1.5 (≈ 2 µM)
Neisseria oralis, isolate id (sample isolate): Co000770_1	2 (≈ 2.67 µM)
Neisseria oralis, isolate id (sample isolate): Co000774_1	3 (≈ 4.01 µM)
Neisseria oralis, isolate id (sample isolate): Co000776_1	4 (≈ 5.34 µM)
Neisseria oralis, isolate id (sample isolate): Co000776_1.1	3 (≈ 4.01 µM)
Neisseria oralis, isolate id (sample isolate): Co000779_2	4 (≈ 5.34 µM)
Neisseria oralis, isolate id (sample isolate): Co000790_5	2 (≈ 2.67 µM)
[1], isolate id (sample isolate): Co000780_4	2 (≈ 2.67 µM)
[1], isolate id (sample isolate): Co000781_1	1.5 (≈ 2 µM)
[1], isolate id (sample isolate): Co000781_3	4 (≈ 5.34 µM)
[1], isolate id (sample isolate): Co000781_4	3 (≈ 4.01 µM)
[1], isolate id (sample isolate): Co000782_2	8 (≈ 10.7 µM)
[1], isolate id (sample isolate): Co000782_3	8 (≈ 10.7 µM)
[1], isolate id (sample isolate): Co000782_4	8 (≈ 10.7 µM)
[1], isolate id (sample isolate): Co000783_1	4 (≈ 5.34 µM)
[1], isolate id (sample isolate): Co000783_2	1.5 (≈ 2 µM)
[1], isolate id (sample isolate): Co000783_5	2 (≈ 2.67 µM)
[1], isolate id (sample isolate): Co000784_1	1.5 (≈ 2 µM)
[1], isolate id (sample isolate): Co000784_2	4 (≈ 5.34 µM)
[1], isolate id (sample isolate): Co000784_5	4 (≈ 5.34 µM)
[1], isolate id (sample isolate): Co000785_1	1 (≈ 1.34 µM)
[1], isolate id (sample isolate): Co000785_2	1.5 (≈ 2 µM)
[1], isolate id (sample isolate): Co000785_3	2 (≈ 2.67 µM)
[1], isolate id (sample isolate): Co000785_4	1 (≈ 1.34 µM)
[1], isolate id (sample isolate): Co000786_1	2 (≈ 2.67 µM)
[1], isolate id (sample isolate): Co000786_2	4 (≈ 5.34 µM)
[1], isolate id (sample isolate): Co000787_1	2 (≈ 2.67 µM)
[1], isolate id (sample isolate): Co000787_2	6 (≈ 8.01 µM)
[1], isolate id (sample isolate): Co000787_4	6 (≈ 8.01 µM)
[1], isolate id (sample isolate): Co000788_2	3 (≈ 4.01 µM)
[1], isolate id (sample isolate): Co000788_3	3 (≈ 4.01 µM)
[1], isolate id (sample isolate): Co000788_5	3 (≈ 4.01 µM)
[1], isolate id (sample isolate): Co000789_1	6 (≈ 8.01 µM)
[1], isolate id (sample isolate): Co000790_2	1 (≈ 1.34 µM)
[1], isolate id (sample isolate): Co000790_4	1.5 (≈ 2 µM)

Neisseria meningitidis
Details	minimum inhibitory concentration [µg/mL]
isolate id (sample isolate): 19040471_1, population: MSM, antibiotic use in previous 6 months: No	0.38 (≈ 0.507 µM)
isolate id (sample isolate): 19040855_1, population: MSM, antibiotic use in previous 6 months: No	0.25 (≈ 0.334 µM)
isolate id (sample isolate): 19040874_2, population: MSM, antibiotic use in previous 6 months: No	2 (≈ 2.67 µM)
isolate id (sample isolate): 19040900_2, population: MSM, antibiotic use in previous 6 months: No	0.75 (≈ 1 µM)
isolate id (sample isolate): 19042150_2, population: MSM, antibiotic use in previous 6 months: Yes	1.5 (≈ 2 µM)
isolate id (sample isolate): 19042756_3, population: MSM, antibiotic use in previous 6 months: Yes	0.38 (≈ 0.507 µM)
isolate id (sample isolate): 19043201_1, population: MSM, antibiotic use in previous 6 months: No	0.75 (≈ 1 µM)
isolate id (sample isolate): 19043201_2, population: MSM, antibiotic use in previous 6 months: No	0.38 (≈ 0.507 µM)
isolate id (sample isolate): 19043274_1, population: MSM, antibiotic use in previous 6 months: Yes	0.5 (≈ 0.668 µM)
isolate id (sample isolate): 19043274_2, population: MSM, antibiotic use in previous 6 months: Yes	0.38 (≈ 0.507 µM)
isolate id (sample isolate): 19051853_1, population: MSM, antibiotic use in previous 6 months: No	0.38 (≈ 0.507 µM)
isolate id (sample isolate): 19052394_3, population: MSM, antibiotic use in previous 6 months: Yes	0.5 (≈ 0.668 µM)
isolate id (sample isolate): 19052434_1, population: MSM, antibiotic use in previous 6 months: Yes	0.75 (≈ 1 µM)
isolate id (sample isolate): 19060069_1, population: MSM, antibiotic use in previous 6 months: Yes	1 (≈ 1.34 µM)
isolate id (sample isolate): 19060069_2, population: MSM, antibiotic use in previous 6 months: Yes	1 (≈ 1.34 µM)
isolate id (sample isolate): 19060089_2, population: MSM, antibiotic use in previous 6 months: Yes	4 (≈ 5.34 µM)
isolate id (sample isolate): 19061666_1, population: MSM, antibiotic use in previous 6 months: Yes	3 (≈ 4.01 µM)
isolate id (sample isolate): 19062990_1, population: MSM, antibiotic use in previous 6 months: Yes	0.5 (≈ 0.668 µM)
isolate id (sample isolate): 19070019_2, population: MSM, antibiotic use in previous 6 months: No	0.38 (≈ 0.507 µM)
isolate id (sample isolate): 19070019_4, population: MSM, antibiotic use in previous 6 months: No	0.38 (≈ 0.507 µM)
isolate id (sample isolate): 19070047_1, population: MSM, antibiotic use in previous 6 months: No	0.5 (≈ 0.668 µM)
isolate id (sample isolate): 19082621_2, population: MSM, antibiotic use in previous 6 months: No	0.5 (≈ 0.668 µM)
isolate id (sample isolate): 19091461_1, population: MSM, antibiotic use in previous 6 months: No	6 (≈ 8.01 µM)
isolate id (sample isolate): 19091461_2, population: MSM, antibiotic use in previous 6 months: No	4 (≈ 5.34 µM)
isolate id (sample isolate): 19091973_1, population: MSM, antibiotic use in previous 6 months: No	0.5 (≈ 0.668 µM)
isolate id (sample isolate): 19092429_3, population: MSM, antibiotic use in previous 6 months: No	0.38 (≈ 0.507 µM)
isolate id (sample isolate): 19103457_1, population: MSM, antibiotic use in previous 6 months: No	0.38 (≈ 0.507 µM)
isolate id (sample isolate): 19103457_4, population: MSM, antibiotic use in previous 6 months: No	0.25 (≈ 0.334 µM)
isolate id (sample isolate): 19110394_1, population: MSM, antibiotic use in previous 6 months: No	0.5 (≈ 0.668 µM)
isolate id (sample isolate): 19113049_3, population: MSM, antibiotic use in previous 6 months: No	0.19 (≈ 0.254 µM)
isolate id (sample isolate): 19113049_6, population: MSM, antibiotic use in previous 6 months: No	0.25 (≈ 0.334 µM)
isolate id (sample isolate): Co000765_1, population: general population, antibiotic use in previous 6 months: No	0.5 (≈ 0.668 µM)
isolate id (sample isolate): Co000790_1, population: general population, antibiotic use in previous 6 months: No	2 (≈ 2.67 µM)
isolate id (sample isolate): Co000790_3, population: general population, antibiotic use in previous 6 months: No	1 (≈ 1.34 µM)

Source: the supplement of paper PMC8741786
